In test [1] the target is T1, human recombinant TYK2 protein (Homo sapiens, UniProt P29597).
T1 construct: purchased Carna Biosciences 08-147
T1 sequence (P29597 871-1187 limits assumed): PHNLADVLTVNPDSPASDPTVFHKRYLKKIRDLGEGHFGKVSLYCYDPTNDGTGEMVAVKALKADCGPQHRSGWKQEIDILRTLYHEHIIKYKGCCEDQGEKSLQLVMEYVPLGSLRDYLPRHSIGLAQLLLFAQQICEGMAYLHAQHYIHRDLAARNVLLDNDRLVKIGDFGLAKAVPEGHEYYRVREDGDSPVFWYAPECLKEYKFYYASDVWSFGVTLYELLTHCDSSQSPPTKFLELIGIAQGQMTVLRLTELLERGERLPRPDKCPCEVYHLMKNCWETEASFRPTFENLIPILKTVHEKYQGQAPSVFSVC
The test can be described thus: TYK2 Inhibition Assay (HTRF kinase assay). It is filed as biochemical. As to conditions: human recombinant TYK2, 11.25 μM ATP substrate solution. The method in brief:
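Recombinant human TYK2 was pre-incubated 15 min at room temperature with compound, then reacted for 40 min with biotinylated tyrosine-kinase substrate and ATP (substrate solution 11.25 μM ATP, 0.5 μM substrate; 5 mM MgCl2, 0.01% Brij35). Phosphorylation was read by HTRF 665/620 ratio, normalised to no-enzyme and no-compound controls, and IC50 was fitted from 8 4-fold dilutions.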
On the technique in general: In TR-FRET formats the signal depends on donor and acceptor labels being close together.

Test [2] has as its system IL-12-induced IFN-γ secretion in NK92 cells. The test can be described thus: Inhibition of IL-12-induced IFN-γ Secretion in NK92 Cells (ELISA). It is filed as cell-based, human. Particulars: Homo sapiens, 24 hours incubation, 8 concentration points, read-out: IC50 (NK92_IL12/IFNγ). A digest of the protocol:
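NK92 cells (100,000/well, IL-2-free medium) rested overnight, then treated with compound plus IL-12 for 24 h at 37 °C. Secreted IFN-γ measured in supernatant by ELISA. Inhibition normalized to unstimulated and IL-12/0.2% DMSO controls; IC50 fitted from 8 concentrations.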
For orientation: In an ELISA, binding on a coated surface is turned into a signal by an enzyme label.

For test [3], the target named is T2, human recombinant JAK2 protein (Homo sapiens, UniProt O60674).
T2 construct: purchased Carna Biosciences 08-045
The test can be described thus: JAK2 Inhibition Assay (HTRF kinase assay). It is filed as biochemical. Particulars: human recombinant JAK2, 2.5 μM ATP substrate solution. The method in brief: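 Recombinant human JAK2 was preincubated 15 min at room temperature with compound in buffer containing 5 mM MgCl2, 1 mM DTT and 0.01% Brij35. Substrate solution (2.5 μM ATP, 0.25 μM biotinylated TK substrate) was then added for 30 min. Phosphorylation was detected by HTRF (665/620 nm ratio; no-enzyme = 100% inhibition), and IC50 was fitted from an 8-point, 4-fold series.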

IC50 data for seven compounds are collected here from US12448382B2, “Heterocyclic compounds for mediating tyrosine kinase 2 activity” (GUANGZHOU INNOCARE PHARMA TECH CO., LTD., priority 2019, dated 2025).

T2 sequence (O60674 826-1132 limits assumed): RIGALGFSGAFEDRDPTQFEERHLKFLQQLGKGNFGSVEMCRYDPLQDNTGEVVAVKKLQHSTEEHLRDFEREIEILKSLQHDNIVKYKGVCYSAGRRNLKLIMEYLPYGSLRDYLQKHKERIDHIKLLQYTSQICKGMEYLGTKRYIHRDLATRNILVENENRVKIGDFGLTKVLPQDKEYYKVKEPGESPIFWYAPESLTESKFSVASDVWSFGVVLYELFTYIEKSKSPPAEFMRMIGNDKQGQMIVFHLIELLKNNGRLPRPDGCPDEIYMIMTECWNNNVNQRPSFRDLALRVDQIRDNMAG

Take `Cn1cc(Nc2ncc(Cl)c(N3C[C@]4(C)CN(C(=O)C5(C#N)CC5)C[C@]4(C)C3)n2)cn1` [Compound 42, 1-((3aR,6aS)-5-(5-chloro-2-((1-methyl-1H-pyrazol-4-yl)amino)pyrimidin-4-yl)-3a,6a-dimethyloctahydropyrrolo[3,4-c]pyrrole-2-carbonyl)cyclopropane-1-carbonitrile]: the IC50 in test [1] stood at 5.7 nM; in test [2], 3470 nM; in test [3] it was 20 nM.
Taken in the same sequence, the figures for `C[C@@]12CN(C(=O)CC#N)C[C@]1(C)CN(c1nc(Nc3cn[nH]c3)ncc1Cl)C2` [Compound 28, 3-((3aR,6aS)-5-(2-((1H-pyrazol-4-yl)amino)-5-chloropyrimidin-4-yl)-3a,6a-dimethylhexahydropyrrolo[3,4-c]pyrrol-2(1H)-yl)-3-oxopropanenitrile] were 0.2 nM, 2210 nM and 0.4 nM.
Taken in the same sequence, the figures for `C[C@@]12CN(C(=O)CC#N)C[C@]1(C)CN(c1nc(Nc3cnn(CCO)c3)ncc1Cl)C2` [Compound 31, 3-((3aR,6aS)-5-(5-chloro-2-((1-(2-hydroxyethyl)-1H-pyrazol-4-yl)amino)pyrimidin-4-yl)-3a,6a-dimethylhexahydropyrrolo[3,4-c]pyrrol-2(1H)-yl)-3-oxopropanenitrile] were 0.5 nM, 2780 nM and 0.4 nM.
Taken in the same sequence, the figures for `Cn1cc(Nc2nccc(N3C[C@@H]4CN(Cc5ccno5)C[C@]4(C)C3)n2)cn1` (relative stereo) [Compound 69, cis-4-(5-(isoxazol-5-ylmethyl)-3a-methylhexahydropyrrolo[3,4-c]pyrrol-2(1H)-yl)-N-(1-methyl-1H-pyrazol-4-yl)pyrimidin-2-amine] were 98 nM, 7060 nM and 156 nM.
In the case of `Cn1cc(Nc2ncc(Cl)c(N3C[C@H]4CN(C(=O)C5CC5)C[C@@]4(C)C3)n2)cn1` (racemic) [Compound 62, cis-(5-(5-chloro-2-((1-methyl-1H-pyrazol-4-yl)amino)pyrimidin-4-yl)-3a-methylhexahydropyrrolo[3,4-c]pyrrol-2(1H)-yl)(cyclopropyl)methanone], the IC50 in test [1] is 0.6 nM; in test [2], 269 nM; in test [3], 2.6 nM.
Taken in the same sequence, the figures for `Cc1cnc(Nc2cnn(C)c2)nc1N1C[C@@H]2CN(Cc3ccno3)C[C@]2(C)C1` (racemic) [Compound 73, cis-4-(5-(isoxazol-5-ylmethyl)-3a-methylhexahydropyrrolo[3,4-c]pyrrol-2(1H)-yl)-5-methyl-N-(1-methyl-1H-pyrazol-4-yl)pyrimidin-2-amine] were 3.3 nM, 278 nM and 6 nM.
Taken in the same sequence, the figures for `C[C@@]12CN(C(=O)C3CC3)C[C@]1(C)CN(c1nc(Nc3cnn(CCO)c3)ncc1F)C2` [Compound 13] were 8.5 nM, 4140 nM and 170 nM.
